Test system: HeLa
Assay: Cytotoxicity against human HeLa cells assessed as cell death at 1 uM after 24 hrs MTT assay relative to control
Format: cell-based

O=C(/C=C/c1ccccc1)N[C@@H](c1ccccc1)[C@@H](OC(=O)c1ccccc1)C(=O)NC1CCCCC1
Activity: < 10%
